5 molecules from US20240002351A1, “QUINAZOLIN-4-ONE AND THIENO[2,3-D]PYRIMIDIN-4-ONE INHIBITORS OF ERBB4 (HER4) FOR USE IN THE TREATMENT OF CANCER” (UNIVERSITEIT ANTWERPEN, priority 2021, published 2024) can be followed below.

Series [1] concerns the target T1, ERBB4 (Homo sapiens, UniProt Q15303).
T1 construct: host or cells: U2OS
The series can be described thus: PathHunter ERBB4/ERBB4 dimerization assay, dose-response curves. The conditions noted are these: U2OS ERBB4/ERBB4 dimerization cell line, 6 hours, compound alone; for Emax: NRG-1 = 100. Format: cell-based. Here is the method:
(§1) Following 1-12 passages, U2OS ERBB4/ERBB4 dimerization cell line (Eurofins, 93-0961C3) were seeded at 10,000 cells/well in 100 μL cell plating reagent (Eurofins, 93-0563R0A) in white walled 96-well plates (PerkinElmer, 6005680) and incubated for 24h at 37° C. in humidified atmosphere of 5% CO2 in air. Cells were treated with 10 μL of compound (prepared at 11×, Enamine), 10 μM Heregulin-β1 (NRG-1) (DiscoverX, 92-1031 or Peprotech, 100-03) or PBS. […] Cells were subsequently incubated for 6 hours at 37° C., 5% CO2. Then 110 μL PathHunter Flash Detection Reagents (93-0247) were added to each well and cells were incubated at room temperature for 1 hour (covered from light). Afterwards luminescence signal was measured using the Luminoskan Ascent (Thermofisher). Dose response curves of the compounds were performed in 2-fold (0,0625 μM-32 μM).
From these curves, the EC50 and the Emax of the compounds was calculated.

The target of series [2] is T1, ERBB4. The series can be described thus: PathHunter ERBB4/ERBB4 dimerization assay, compounds on top of 0.1 μM NRG-1 (identification of modulators). Type of series: cell-based. The conditions noted are these: for Emax: on top of 0.1 μM NRG1, relative to NRG1 (set as 100%); for behaviour from the shape of the dose-response curves: on top of 0.1 μM neuregulin-1 (FIG. 1); for EC50: on top of 0.1 μM NRG1. As for the experimental part: as §1
Cells were treated with compound (prepared at 22×, 10 min pre-incubation) together with NRG-1 (0.1 μM final concentration, Peprotech, 100-03), or NRG-1 (0.1 μM final concentration) or PBS.
The EC50 and the Emax of the compounds on top of 0.1 μM NRG1 is depicted in Table 3 relative to NRG1 (set as 100%).

The subject of another series is EFO-21 cells. As to the kind of experiment: AK (adenylate kinase) toxicity assay. Type of series: cell-based. The conditions noted are these: 32 μM, 24 hours, EFO-21 cells (FIG. 3). Here is the method: EFO-21 cells were seeded at 10,000 cells/well in 100 μL cell medium in white walled 96-well plates (PerkinElmer, 6005680) and incubated overnight at 37° C. in humidified atmosphere of 5% CO2 in air. Next, cells were put on serum starved (SS) medium (0,1% FBS) overnight. Overnight cell cultures were then stimulated with PBS, compound (32 μM, Enamine) and/or NRG-1 (0.1 μM, Peprotech, 100-03) for 24 hours at 37° C. in humidified atmosphere of 5% CO2 in air. […] Next, 100 μL Toxilight AK detection reagent was added to each well and incubated at room temperature for 5 minutes. Luminescence was measured using the Luminoskan Ascent (Thermofisher).

Series [3] has as its system Human atrial cardiac fibroblasts (HCF). As to the kind of experiment: In vitro fibrosis assay, TGFβ-stimulated HCF (qRT-PCR). Format: cell-based. Particulars: TGFβ 10 ng/mL, 24 hours (FIG. 9). As for the experimental part: Human dermal fibroblasts (HDF, Cell applications, 106-05A) were cultured in Dulbecco's modified Eagle's medium (DMEM, ThermoFisher Scientific, 11995065) supplemented with 10% (v/v) heat-inactivated fetal bovine serum (FBS, ThermoFisher Scientific, 10082147), 1% penicillin/streptomycin and 1 mL polymyxin B and were maintained at 37° C. in humidified atmosphere of 5% CO2 in air. Human atrial cardiac fibroblasts (HCF, Innoprot, P10454) were cultured in fibroblast medium (Innoprot, P60108) supplemented with fetal bovine serum, fibroblast growth supplement and penicillin/streptomycin and were maintained at 37° C. in humidified atmosphere of 5% CO2 in air.
Following 1-9 passages, HDF and HCF were seeded at 0.3×10^6 cells/well in 1 mL cell medium in 12-well plates and incubated overnight at 37° C. in humidified atmosphere of 5% CO2 in air. Next, cells were put on serum starved medium (0.1% FBS) for 8 hours and then stimulated for 24 hours with either PBS, active compound (4-32 μM) or non-active compound (NA1, NA2; 4-32 μM) on top of TGFβ (10 ng/mL, Peprotech, 100-21). […] Next, cells were lysed using 100 μL lysis buffer RA1 (of RNA isolation kit below) supplemented with β-mercapto-ethanol (100:1), scraped with a cell scraper and transferred to centrifuge tubes to be stored at −20° C. for a maximum of 2 weeks before RNA isolation.
RNA was extracted using Nucleospin RNA XS (Machery Nagel) according to the manufacturer's instructions. For cDNA synthesis, total RNA was added to a solution containing buffer with random hexamers and reverse transcriptase enzyme. The PCR was performed using the following parameters: 10 minutes at 25° C., 30 minutes at 48° C., 5 minutes at 95° C. RT-qPCR on the cDNA samples was performed using Taqman Universal PCR Master Mix (Applied Biosystems) and Taqman primers according to the manufacturer's instructions. […] Expression levels were calculated using the comparative cycle method and expressed as fold change to appropriate (background) control. […]

Series [4] is described as follows: Solubility in PBS (absorbance). Type of series: physicochemical. The conditions noted are these: aqueous buffer, kinetic from dmso stock, 37° C., 2 hours (FIG. 10), read-out: solubility: concentration at which easily soluble. Here is the method:
A dilution series (0.16, 0.31, 0.62, 1.25, 2.5 and 5 mM) was made starting with a compound stock solution of 10 mM in DMSO. Aliquot of 4 μL was taken out of every dilution and added to 196 μL PBS in a 96-well plate. The plate was shaken for 10 seconds, incubated at 37° C. for 2 hours and thereafter absorbance was measured. Samples were analyzed in duplicate.

A further series can be described thus: Chemical stability. Type of series: physicochemical. Particulars: 37° C. and pH 7.4 for 24 hours (FIG. 11). As for the experimental part:
A 10 μL aliquot of compound solution (10 mM in DMSO) was added to 990 μL DMSO (100 μM) and further diluted with […] to a stock solution of 500 nM. The mixture was incubated at 37° C. Aliquots of 100 μL were taken at various time points (0, 0.5, 1, 2, 3, 6 and 24 hrs) and analyzed with LC-MS/MS (Waters Acquity H-class UPLC system with ion trap mass spectrometer, Bruker Daltonics Esquire 3000 plus, and Agilent 1100 Series LC system). Samples were analyzed in triplicate and plotted against a standard curve; compound at 31-500 nM in buffer solution of pH 7.4 (10 mM Potassium Phosphate, BD Gentest).

Series [5] can be described thus: Plasma stability, human plasma. Type of series: in vitro ADME. Particulars: 50 μM, 37° C., over 6 hours (FIG. 12). As for the experimental part:
(§2) A 5 μL aliquot of compound solution (10 mM in DMSO) was added to 995 μL of Non Swiss Albino Mouse Plasma (DivBioScience, Breda, Netherlands) or Pooled Normal Human plasma in sodium citrate to obtain a final concentration of 50 μM compound in plasma. The mixture was gently shaken for 6 hours at 37° C. Aliquots of 100 μL were taken at various time points (0, 0.5, 1, 2 and 6 hrs.) and diluted with 400 μL of cold acetonitrile (Sigma-Aldrich, stored at 4° C.). The suspension was centrifuged at 14000 rpm for 5 min. Thereafter, 50 μL of the supernatant was diluted with 950 μL of acetonitrile and analyzed with LC-MS/MS (Waters Acquity H-class UPLC system with ion trap mass spectrometer, Bruker Daltonics Esquire 3000 plus, and Agilent 1100 Series LC system). Samples were analyzed in triplicate and plotted against a standard curve (compound at 3.12-100 μM in plasma and diluted in acetonitrile as described above).

Series [6] is described as follows: Plasma stability, mouse plasma. Format: in vitro ADME. Particulars: 50 μM, 37° C., over 6 hours (FIG. 12). Here is the method: as §2
Series [7] is described as follows: Metabolic stability, human liver microsomes. Format: in vitro ADME. As for the experimental part:
(§3) A mixture of 713 μL milliQ water (Millipore, MA, USA), 200 μL 0.5 M phosphate buffer (pH 7.4, BD Diagnostic Systems, MD, USA), 50 μL NADPH regenerating system solution A (BD Biosciences, CA, USA), 10 μL NADPH regenerating system solution B (BD Biosciences, CA, USA) and 2 μL compound (5 mM in DMSO) was prepared and heated for 5 min at 37° C. Twenty-five μL of liver microsomes (0.5 mg protein/mL, Corning B.V. Life Sciences, Amsterdam, Netherlands) was added to the mixture and 20 μL samples were withdrawn at 0, 0.25, 0.5 and 1, 2, 4, 6 and 24 hours. Eighty μL (4×20 μL) of cold acetonitrile (Sigma-Aldrich, MO, USA) was added to the samples on ice for 10 min. Afterwards, the mixtures were centrifuged at 13,000 rpm for 5 min at 4° C. Seventy-five μL of an acetonitrile/water (10/90) mixture was added to 25 μL supernatant and the obtained samples were analyzed by LC-MS/MS (Waters Acquity H-class UPLC system with ion trap mass spectrometer, Bruker Daltonics Esquire 3000 plus, and Agilent 1100 Series LC system) in triplicate.
A general note: Microsomes from liver hold many membrane-bound enzymes, among them those of drug oxidation.

Series [8] in a line: Metabolic stability, mouse liver microsomes. Format: in vitro ADME. As for the experimental part:
as §3

The structures appear in SMILES notation.

T1 sequence (Q15303 26-1308): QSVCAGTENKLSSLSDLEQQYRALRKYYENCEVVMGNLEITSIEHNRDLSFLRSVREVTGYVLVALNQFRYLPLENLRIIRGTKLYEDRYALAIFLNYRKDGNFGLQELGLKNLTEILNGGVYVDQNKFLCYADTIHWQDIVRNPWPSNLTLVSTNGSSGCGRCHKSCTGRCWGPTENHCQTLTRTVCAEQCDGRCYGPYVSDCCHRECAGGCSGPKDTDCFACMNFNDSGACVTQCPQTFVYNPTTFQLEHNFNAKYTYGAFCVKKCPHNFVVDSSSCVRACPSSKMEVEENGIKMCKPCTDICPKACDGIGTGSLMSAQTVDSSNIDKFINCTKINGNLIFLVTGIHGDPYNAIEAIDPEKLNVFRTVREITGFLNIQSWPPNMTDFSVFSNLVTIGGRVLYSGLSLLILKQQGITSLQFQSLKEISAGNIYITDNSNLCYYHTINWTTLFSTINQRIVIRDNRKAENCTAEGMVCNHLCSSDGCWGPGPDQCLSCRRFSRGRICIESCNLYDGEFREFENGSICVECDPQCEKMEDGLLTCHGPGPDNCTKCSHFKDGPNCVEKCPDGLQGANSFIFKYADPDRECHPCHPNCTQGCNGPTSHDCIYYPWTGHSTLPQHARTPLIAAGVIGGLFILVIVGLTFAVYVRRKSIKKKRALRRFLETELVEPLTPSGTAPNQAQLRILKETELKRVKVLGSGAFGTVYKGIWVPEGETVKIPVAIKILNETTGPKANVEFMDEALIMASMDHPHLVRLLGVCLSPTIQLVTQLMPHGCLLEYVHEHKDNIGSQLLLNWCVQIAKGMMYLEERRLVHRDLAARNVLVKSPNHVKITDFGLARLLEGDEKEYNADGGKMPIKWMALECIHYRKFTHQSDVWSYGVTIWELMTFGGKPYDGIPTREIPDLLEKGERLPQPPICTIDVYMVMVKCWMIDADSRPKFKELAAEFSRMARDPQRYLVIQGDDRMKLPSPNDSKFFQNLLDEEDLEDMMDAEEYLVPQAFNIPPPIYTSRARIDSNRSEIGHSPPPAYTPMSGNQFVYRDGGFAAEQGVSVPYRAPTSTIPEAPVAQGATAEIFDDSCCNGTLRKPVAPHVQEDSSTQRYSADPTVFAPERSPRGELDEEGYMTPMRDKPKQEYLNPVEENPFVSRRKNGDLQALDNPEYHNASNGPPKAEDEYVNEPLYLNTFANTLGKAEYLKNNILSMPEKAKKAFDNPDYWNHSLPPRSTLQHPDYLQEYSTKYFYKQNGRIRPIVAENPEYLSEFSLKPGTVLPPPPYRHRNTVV

As a reminder, the EC50 is the concentration that produces a half-maximal response. Read a high EC50 as a less potent agent. As usually defined, the Emax is the maximal effect, on the per cent scale that the assay sets. On to `CC(=O)c1ccc(NC(=O)C(C)Sc2nc3ccccc3c(=O)n2C2CCCC2)cc1` (stereo not drawn) [Compound 2], for which, at ERBB4 [1], the EC50 is 10.9 µM and the Emax was 9.48 ± 2.13%. Besides, on ERBB4 [2], the Emax was 126 ± 36% and the “behaviour from the shape of the dose-response curves” value (“behaviour from the shape” for short) was “weak or silent allosteric modulators”.
For `CC(Sc1nc2ccccc2c(=O)n1C1CCCC1)C(=O)N(C)c1ccccc1` (stereo not drawn) [Compound 3], at ERBB4 [1], the EC50 is 15.8 µM and the Emax amounted to 14.3 ± 2.63%. In addition, at ERBB4 [2], the Emax was determined as 36 ± 13% and the “behaviour from the shape” value is “partial agonists or allosteric agonists functioning as partial agonists”. Moreover, the “toxicity (AK release)” value with EFO-21 cells is listed as “limited toxicity”. For the same molecule, the “col1a1 levels in comparison with TGFβ control” value in series [3] is “significantly decrease col1a1 levels”.
`CC(C)n1c(SC(C(=O)NC2CC2)c2ccccc2)nc2sc3c(c2c1=O)CCC3` (stereo not drawn) [Compound 4]: at ERBB4 [1], the EC50 was 7.54 µM and the Emax stood at 16.9 ± 3.69%. For the same molecule, at ERBB4 [2], the EC50 was approximately 21.5 µM, the Emax amounted to 192 ± 34% and the “behaviour from the shape” value is on record as “ago-allosteric modulators”. Moreover, the solubility at 2 h in [4] is less than 25 µM. Also, in “Chemical stability”, the chemical stability entry was “chemically stable”. Also, the “plasma stability, human plasma” value in series [5] is “stable”. The “plasma stability, mouse plasma” value in series [6] is “stable”. Further, the “t1/2 human” value in series [7] (human liver microsomes) is listed as 18 min. For the same molecule, in series [7] (human, liver microsomes, pH 7.4, human liver microsomes, read-out: t1/2 human), the half-life at 10 µM fell in the range of 17 to 18 min. For the same molecule, the “t1/2 mouse” value in series [8] (mouse liver microsomes) worked out at 12 min. In addition, the half-life at 10 µM in series [8] (mouse, liver microsomes, pH 7.4, mouse liver microsomes, read-out: t1/2 mouse) lay in the range of 8 to 12 min.
At ERBB4 [1], `O=C1NCCCCC1Sc1nc2sc3c(c2c(=O)n1C1CCCC1)CCCC3` (stereo not drawn) [Compound 5] returned an EC50 of 6.11 µM and an Emax of 17.7 ± 3.45%. Further, at ERBB4 [2], the EC50 was approximately 3.36 µM, the Emax is 63 ± 14% and the “behaviour from the shape” value is “partial agonists or allosteric agonists functioning as partial agonists”. For the same molecule, the “toxicity (AK release)” value with EFO-21 cells was “limited toxicity”.
At ERBB4 [1], `Cc1sc2cc(SCC(=O)NC(C)(C#N)C(C)C)n(C3CCCC3)c(=O)c2c1C` (stereo not drawn) [Compound 8] registered an EC50 of 20.4 µM and a maximal response (Emax) of 18.4 ± 3.47%. For the same molecule, on ERBB4 [2], the Emax was determined as 174 ± 38% and the “behaviour from the shape” value is “ago-allosteric modulators”.
